Reference: patent publication US10597388B2, “Pyridazinone herbicides” (FMC CORPORATION, priority 2014, dated 2020)

Experiments:
Format in all cases: in vivo
kochia (Kochia scoparia) = assay: Test A greenhouse herbicide test, pre- and postemergence
Procedure, shortened: (§1)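 Seeds in loam–sand blend received a preemergence directed soil spray; plants at 2–10 cm, one- to two-leaf stage, received postemergence sprays. Compounds in a non-phytotoxic solvent with surfactant. After about 10 d in a greenhouse, injury rated visually versus untreated controls on a 0–100 scale (100 = complete control).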

[1] = test system: pigweed (Amaranthus retroflexus); assay: as above
Procedure, shortened: as §1

corn (Zea mays) = assay: as above; settings: Postemergence
Procedure, shortened: as §1

[2] = test system: ryegrass, Italian (Italian ryegrass, Lolium multiflorum); assay: as above
Procedure, shortened: as §1

[3] = test system: wheat (Triticum aestivum); assay: as above; settings: Postemergence
Procedure, shortened: as §1

[4] = test system: barnyardgrass (Echinochloa crus-galli); assay: as above
Procedure, shortened: as §1

[5] = test system: ragweed (common ragweed, Ambrosia elatior); assay: as above
Procedure, shortened: as §1

[6] = test system: foxtail, giant (giant foxtail, Setaria faberii); assay: as above
Procedure, shortened: as §1

[7] = test system: galium (catchweed bedstraw, Galium aparine); assay: Test A greenhouse herbicide test, postemergence
Procedure, shortened: (§2)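 Pot-grown plants (loam soil/sand blend), 2–10 cm tall at the one- to two-leaf stage, received postemergence sprays of formulated test chemical. After about 10 d in the greenhouse, injury was rated visually against untreated controls on a 0 (no effect) to 100 (complete control) scale.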

[8] = test system: blackgrass (Alopecurus myosuroides); assay: Test A greenhouse herbicide test, postemergence
Procedure, shortened: as §2

rice (Oryza sativa) = assay: Test B flooded paddy test; settings: 250 g ai/ha, Flood; visual rating on scale of 0 to 100 where 0 is no effect and 100 is complete control; 13 to 15 d after treatment
Procedure, shortened: (§3)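 Plants grown to the 2-leaf stage. At treatment, pots were flooded to 3 cm above the soil, compound was applied directly to the paddy water, and that depth was held throughout. After 13 to 15 d in the greenhouse, response was rated visually against controls on a 0 (no effect) to 100 (complete control) scale.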

[9] = test system: barnyardgrass (Echinochloa crus-galli); assay: Test B flooded paddy test; settings: 250 g ai/ha, Flood; visual rating on scale of 0 to 100 where 0 is no effect and 100 is complete control; 13 to 15 d after treatment
Procedure, shortened: as §3

[10] = test system: ducksalad (Heteranthera limosa); assay: Test B flooded paddy test; settings: 250 g ai/ha, Flood; visual rating on scale of 0 to 100 where 0 is no effect and 100 is complete control; 13 to 15 d after treatment
Procedure, shortened: as §3

[11] = test system: sedge, umbrella (small-flower umbrella sedge, Cyperus difformis); assay: Test B flooded paddy test; settings: 250 g ai/ha, Flood; visual rating on scale of 0 to 100 where 0 is no effect and 100 is complete control; 13 to 15 d after treatment
Procedure, shortened: as §3

[12] = Postemergence, 125 g ai/ha, 0 to 100 scale where 0 is no effect and 100 is complete control
[13] = Postemergence, 500 g ai/ha, 0 to 100 scale, 0 is no effect, 100 is complete control
[14] = Preemergence, 125 g ai/ha, 0 to 100 scale where 0 is no effect and 100 is complete control
[15] = Preemergence, 500 g ai/ha, 0 to 100 scale, 0 no effect, 100 complete control
[16] = 125 g ai/ha, 0 to 100 scale where 0 is no effect and 100 is complete control
[17] = 500 g ai/ha, 0 to 100 scale, 0 is no effect, 100 is complete control
[18] = Postemergence, 500 g ai/ha, visual rating after approx. 10 d, 0 to 100 scale (0 no effect, 100 complete control)
[19] = Preemergence, 500 g ai/ha, 0 to 100 scale where 0 is no effect and 100 is complete control
[20] = 500 g ai/ha, visual rating after approx. 10 d, 0 to 100 scale (0 no effect, 100 complete control)
[21] = Postemergence, 125 g ai/ha, 0 to 100 scale, 0 no effect, 100 complete control
[22] = Preemergence, 125 g ai/ha, visual injury rating, 0 to 100 scale (0 no effect, 100 complete control), approx. 10 d
[23] = 125 g ai/ha, 0 to 100 scale, 0 no effect, 100 complete control

With `COC(=O)Oc1c(C)nn(C)c(=O)c1-c1ccc(Cl)c2ccccc12` [Compound 63] the “Plant response rating, Kochia” value (kochia (Kochia scoparia); [12]) was 100, the “Kochia plant response rating” value (kochia (Kochia scoparia); [13]) was 100 and the “Kochia plant response rating” value (kochia (Kochia scoparia); [14]) was 100. For the same molecule, the “Plant response rating, Kochia” value (kochia (Kochia scoparia); [15]) was 100, the “Plant response rating, Pigweed” value [1, 12] was 100 and the “Pigweed plant response rating” value [1, 13] was 100. For the same molecule, the “Pigweed plant response rating” value [1, 14] was 100, the “Plant response rating, Pigweed” value [1, 15] was 100 and the “Plant response rating, Corn” value (corn (Zea mays); [16]) was 0. For the same molecule, the “Corn plant response rating” value (corn (Zea mays); [17]) was 40, the “Plant response rating, Ryegrass, Italian” value [2, 12] was 100 and the “Ryegrass, Italian plant response rating” value [2, 13] was 100. The “Ryegrass, Italian plant response rating” value [2, 14] was 100, the “Plant response rating, Ryegrass, Italian” value [2, 15] was 100 and the “Plant response rating, Wheat” value [3, 16] was 0. For the same molecule, the “Wheat plant response rating” value [3, 17] was 40, the “Plant response rating, Barnyardgrass” value [4, 12] was 60 and the “Barnyardgrass plant response rating” value [4, 13] was 90. For the same molecule, the “Barnyardgrass plant response rating” value [4, 14] was 80, the “Plant response rating, Barnyardgrass” value [4, 15] was 90 and the “Plant response rating, Ragweed” value [5, 12] was 100. The “Ragweed plant response rating” value [5, 13] was 100, the “Ragweed plant response rating” value [5, 14] was 80 and the “Plant response rating, Ragweed” value [5, 15] was 90. For the same molecule, the “Plant response rating, Foxtail, Giant” value [6, 12] was 70, the “Foxtail, Giant plant response rating” value [6, 13] was 90 and the “Foxtail, Giant plant response rating” value [6, 14] was 40. The “Plant response rating, Foxtail, Giant” value [6, 15] was 70, the “Plant response rating, Galium” value [7, 16] was 100 and the “Galium plant response rating” value [7, 17] was 100. For the same molecule, the “Plant response rating, Blackgrass” value [8, 16] was 70, the “Blackgrass plant response rating” value [8, 17] was 80 and the “Plant response rating, Rice” value (rice (Oryza sativa)) was 0. For the same molecule, the “Plant response rating, Barnyardgrass” value [9] was 0, the “Plant response rating, Ducksalad” value [10] was 30 and the “Plant response rating, Sedge, Umbrella” value [11] was 65.
`Cc1ccc2c(-c3c(O)c(C)nn(C)c3=O)c(C)ccc2c1` [Compound 110] was tested, and the “Plant response rating, Kochia” value (kochia (Kochia scoparia); [12]) was 50, the “Plant response rating, Kochia” value (kochia (Kochia scoparia); [18]) was 70 and the “Kochia plant response rating” value (kochia (Kochia scoparia); [14]) was 0. For the same molecule, the “Plant response rating, Kochia” value (kochia (Kochia scoparia); [19]) was 100, the “Plant response rating, Pigweed” value [1, 12] was 70 and the “Plant response rating, Pigweed” value [1, 18] was 90. For the same molecule, the “Pigweed plant response rating” value [1, 14] was 90, the “Plant response rating, Pigweed” value [1, 19] was 100 and the “Plant response rating, Corn” value (corn (Zea mays); [16]) was 0. For the same molecule, the “Plant response rating, Corn” value (corn (Zea mays); [20]) was 20, the “Plant response rating, Ryegrass, Italian” value [2, 12] was 70 and the “Plant response rating, Ryegrass, Italian” value [2, 18] was 90. The “Ryegrass, Italian plant response rating” value [2, 14] was 20, the “Plant response rating, Ryegrass, Italian” value [2, 19] was 80 and the “Plant response rating, Wheat” value [3, 16] was 0. The “Plant response rating, Wheat” value [3, 20] was 40, the “Plant response rating, Barnyardgrass” value [4, 12] was 0 and the “Plant response rating, Barnyardgrass” value [4, 18] was 10. The “Barnyardgrass plant response rating” value [4, 14] was 0, the “Plant response rating, Barnyardgrass” value [4, 19] was 20 and the “Plant response rating, Ragweed” value [5, 12] was 60. For the same molecule, the “Plant response rating, Ragweed” value [5, 18] was 100, the “Ragweed plant response rating” value [5, 14] was 30 and the “Plant response rating, Ragweed” value [5, 19] was 40. For the same molecule, the “Plant response rating, Foxtail, Giant” value [6, 12] was 0, the “Plant response rating, Foxtail, Giant” value [6, 18] was 10 and the “Foxtail, Giant plant response rating” value [6, 14] was 10. The “Plant response rating, Foxtail, Giant” value [6, 19] was 40, the “Plant response rating, Galium” value [7, 16] was 70 and the “Plant response rating, Galium” value [7, 20] was 90. For the same molecule, the “Plant response rating, Blackgrass” value [8, 16] was 20, the “Plant response rating, Blackgrass” value [8, 20] was 60 and the “Plant response rating, Rice” value (rice (Oryza sativa)) was 0. The “Plant response rating, Barnyardgrass” value [9] was 0, the “Plant response rating, Ducksalad” value [10] was 0 and the “Plant response rating, Sedge, Umbrella” value [11] was 0.
With `Cc1cc(C)c2sc(C)c(-c3c(OC(=O)N4CCOCC4)c(C)nn(C)c3=O)c2c1` [Compound 174] the “Plant response rating, Kochia” value (kochia (Kochia scoparia); [21]) was 0, the “Plant response rating, Kochia” value (kochia (Kochia scoparia); [18]) was 0 and the “Plant response rating, Kochia” value (kochia (Kochia scoparia); [22]) was 0. For the same molecule, the “Plant response rating, Kochia” value (kochia (Kochia scoparia); [19]) was 0, the “Plant response rating, Pigweed” value [1, 21] was 40 and the “Plant response rating, Pigweed” value [1, 18] was 60. The “Plant response rating, Pigweed” value [1, 22] was 0, the “Plant response rating, Pigweed” value [1, 19] was 20 and the “Plant response rating, Corn” value (corn (Zea mays); [23]) was 0. The “Plant response rating, Corn” value (corn (Zea mays); [20]) was 0, the “Plant response rating, Ryegrass, Italian” value [2, 21] was 10 and the “Plant response rating, Ryegrass, Italian” value [2, 18] was 40. For the same molecule, the “Plant response rating, Ryegrass, Italian” value [2, 22] was 0, the “Plant response rating, Ryegrass, Italian” value [2, 19] was 0 and the “Plant response rating, Wheat” value [3, 23] was 0. For the same molecule, the “Plant response rating, Wheat” value [3, 20] was 0, the “Plant response rating, Barnyardgrass” value [4, 21] was 0 and the “Plant response rating, Barnyardgrass” value [4, 18] was 10. For the same molecule, the “Plant response rating, Barnyardgrass” value [4, 22] was 0, the “Plant response rating, Barnyardgrass” value [4, 19] was 0 and the “Plant response rating, Ragweed” value [5, 21] was 20. For the same molecule, the “Plant response rating, Ragweed” value [5, 18] was 20, the “Plant response rating, Ragweed” value [5, 22] was 0 and the “Plant response rating, Ragweed” value [5, 19] was 0. For the same molecule, the “Plant response rating, Foxtail, Giant” value [6, 21] was 0, the “Plant response rating, Foxtail, Giant” value [6, 18] was 10 and the “Plant response rating, Foxtail, Giant” value [6, 22] was 0. The “Plant response rating, Foxtail, Giant” value [6, 19] was 10, the “Plant response rating, Galium” value [7, 23] was 30 and the “Plant response rating, Galium” value [7, 20] was 80. The “Plant response rating, Blackgrass” value [8, 23] was 0, the “Plant response rating, Blackgrass” value [8, 20] was 0 and the “Plant response rating, Rice” value (rice (Oryza sativa)) was 0. For the same molecule, the “Plant response rating, Barnyardgrass” value [9] was 0, the “Plant response rating, Ducksalad” value [10] was 0 and the “Plant response rating, Sedge, Umbrella” value [11] was 0.
For `COc1nn(C)c(=O)c(-c2c(C)sc3ccc(Cl)cc23)c1OC(C)=O` [Compound 122], the “Plant response rating, Kochia” value (kochia (Kochia scoparia); [12]) was 40, the “Plant response rating, Kochia” value (kochia (Kochia scoparia); [18]) was 70 and the “Kochia plant response rating” value (kochia (Kochia scoparia); [14]) was 30. For the same molecule, the “Plant response rating, Kochia” value (kochia (Kochia scoparia); [19]) was 70, the “Plant response rating, Pigweed” value [1, 12] was 30 and the “Plant response rating, Pigweed” value [1, 18] was 70. The “Pigweed plant response rating” value [1, 14] was 100, the “Plant response rating, Pigweed” value [1, 19] was 100 and the “Plant response rating, Corn” value (corn (Zea mays); [16]) was 0. For the same molecule, the “Plant response rating, Corn” value (corn (Zea mays); [20]) was 20, the “Plant response rating, Ryegrass, Italian” value [2, 12] was 50 and the “Plant response rating, Ryegrass, Italian” value [2, 18] was 70. The “Ryegrass, Italian plant response rating” value [2, 14] was 70, the “Plant response rating, Ryegrass, Italian” value [2, 19] was 90 and the “Plant response rating, Wheat” value [3, 16] was 0. The “Plant response rating, Wheat” value [3, 20] was 0, the “Plant response rating, Barnyardgrass” value [4, 12] was 20 and the “Plant response rating, Barnyardgrass” value [4, 18] was 30. For the same molecule, the “Barnyardgrass plant response rating” value [4, 14] was 0, the “Plant response rating, Barnyardgrass” value [4, 19] was 30 and the “Plant response rating, Ragweed” value [5, 12] was 50. For the same molecule, the “Plant response rating, Ragweed” value [5, 18] was 60, the “Plant response rating, Ragweed” value [5, 19] was 80 and the “Plant response rating, Foxtail, Giant” value [6, 12] was 40. The “Plant response rating, Foxtail, Giant” value [6, 18] was 60, the “Foxtail, Giant plant response rating” value [6, 14] was 30 and the “Plant response rating, Foxtail, Giant” value [6, 19] was 70. For the same molecule, the “Plant response rating, Galium” value [7, 16] was 60, the “Plant response rating, Galium” value [7, 20] was 70 and the “Plant response rating, Blackgrass” value [8, 16] was 30. The “Plant response rating, Blackgrass” value [8, 20] was 40, the “Plant response rating, Rice” value (rice (Oryza sativa)) was 0 and the “Plant response rating, Barnyardgrass” value [9] was 0. For the same molecule, the “Plant response rating, Ducksalad” value [10] was 0 and the “Plant response rating, Sedge, Umbrella” value [11] was 0.
